Consider one compound from patent US7943142B2, “Euglenoid derived alkaloid” (priority 2008, dated 2011).

The subject of series [1] is GH4C1 rat pituitary cells. The experiment in a line: Cytotoxicity against GH4C1 rat pituitary tissue culture cells. Type of series: cell-based.
Series [2] concerns Gomphonema parvum (diatom). The series is described as follows: Algal growth (chlorophyll a) under euglenophycin exposure. The following applies: 0.3, 3 and 30 mg/L; chlorophyll a read daily for four days; FIG. 2. Type of series: cell-based. Here is the method: (§1) Clonal isolates of five representative cyanoprokaryote, diatom, and green algae were grown in BG11 media at 28 C on a 14:10 L:D cycle. At mid-exponential phase growth, […] aliquots of each culture was transferred to 96-well plates. Carrier solvent (control) and euglenophycin toxin was added to three of more replicate vials (at 0, 300 ppb, 3 ppm, and 30 ppm) and growth was monitored for […].
(§2) To evaluate the euglenophycin against the growth rate of selected algal taxa. Cultures of five algal species grown in batch culture were exposed to the euglenophycin. The culture include Microcystis aeruginosa (cyanobacteria), Planktothrix (cyanobacteria), Gomphonema parvum (diatom), Scenedesmus dimorphus (green algae), and Oocystis polymorpha (green algae). The cultures were grown using 14:10 hour L:D cycles, in BG11 culture media. When the alga reached exponential phase, the cells were dispensed into Falcon 96-well tissue culture plates and were dosed with euglenophycin at 0, 0.3, 3 and 30 mg/L concentrations. Solvent blanks (acetone) were included in the control test. Readings of chlorophyll a were made on a BMG Labtech FLUOstar Omega spectrometer daily for four days.

In series [3] the test system is Microcystis aeruginosa (cyanobacteria). The description is as above. The following applies: 0.3, 3 and 30 mg/L; chlorophyll a read daily for four days; FIG. 2. The series is classed as cell-based. Here is the method:
as §1, §2

Series [4] relates to Oocystis polymorpha (green algae). The description is as above. The following applies: 0.3, 3 and 30 mg/L; chlorophyll a read daily for four days; FIG. 2. Type of series: cell-based. On the procedure:
as §1, §2

Series [5] relates to Planktothrix (cyanobacteria). The series is described as above. The following applies: 0.3, 3 and 30 mg/L; chlorophyll a read daily for four days; FIG. 2. The series is classed as cell-based. Here is the method:
as §1, §2

For series [6], the system named is Scenedesmus dimorphus (green algae). Described as above. The series is classed as cell-based. The following applies: 0.3, 3 and 30 mg/L; chlorophyll a read daily for four days; FIG. 2. On the procedure: as §1, §2
The test system of a further series is fish. The series is described as follows: Fish bioassay (ichthyotoxicity). The series is classed as in vivo. The following applies: purified toxin. On the procedure:
The toxic solvent extracts were subjected to HPLC analytical fractionation. Bioassay guided fractionation was used in all phases of separation to track sample activity and cytotoxic and/or ichthyotoxic extracts were identified. HPLC purification was carried out using a WATERS HPLC system (WATERS 2767 Sample Manager, 1525 Binary Pump, 510 pump, WATERS 2996 PDA and a WATERS ZQ Single Quadrature Mass Detector outfitted with an active flow splitter, switching valve using MASS LYNX software (Waters Corporation, Milford, Mass.). The HPLC/MS method was a water/acetone gradient with 0.2% TFA in both solvents. Extract was loaded onto a Phenomenex (Phenomenex Corporation, Torrance, Calif.) C18 LUNA 3 μm particle size, 250×4.6 mm column. The flow scheme conditions were: 1 mL/min flow rate, 90:10 Water/acetone (hold for 2 minutes). This was followed by a linear gradient over 20 minutes to 100% acetone. The acetone was held for 3 minutes prior to original flow conditions. Column temperature was held at 35° C.
NMR and mass spectral analysis provided unambiguous identification of the novel toxin. […] The euglenoids in culture appear to form the toxin independently of growth phase.

Series [7] has as its system Ht-29 (ATCC HTB-38) adenocarcinoma cell line. The series is described as follows: Toxicity against adenocarcinoma cell line Ht-29 (MTS or MTT assay). The series is classed as cell-based. The following applies: summary statement; test of Example 3 / FIG. 3. On the procedure: Specifically, cancer cells were grown to mid-exponential growth phase, aliquots were added to tissue culture plates with carrier (control) and varying euglenophycin toxin (25, 50, 100 mg/L final concentration), with and without 5-fluorouracil and maintained in dimethyl sulfoxide. Growth was monitored by colorimetric change associated with respiration using MTS or MTT assay).
(In general: Tetrazolium dyes change colour on reduction, which living cells bring about.)

Regarding `CCC/C=C\CC/C=C/C=C/C1CCCC(CCCCO)N1` (centres unmarked) [euglenophycin], the “toxicity (cytotoxic activity) towards GH4C1 rat pituitary cells” value in series [1] is listed as “toxicity”. The “effect on culture (chlorophyll a)” value in series [2], in series [3], in series [4], in series [5] and in series [6] was “negatively affected” in each case. The “fish mortality on re-exposure to the toxin” value in the series on fish is reported as “fish mortalities”. Further, in series [7], the “activity against cancerous cell lines” value was “activity”.
